pIC50: −log10 of the molar value.

For assay [1], the system named is RKO colon adenocarcinoma cells (RKOp27) arrested by the expression of ectopic p27Kip1. Nature of the assay: Alamar Blue cell viability assay on RKOp27 cells arrested by p27Kip1 expression induced by Ponasterone A. The assay is classed as cell-based. To be noted: Homo sapiens, 72 hours incubation, 10 μM Ponasterone A, read-out: IC50 RKO p27 induced (arrested). In a few lines: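 RKOp27 cells, 15000/well, held in DMEM with 10% FCS and with or without 10 μM Ponasterone A to induce p27Kip1 arrest. Compound dilutions added 24 h after seeding, then 72 h at 37 °C in quadruplicate. Alamar Blue fluorescence (544/590 nm) gave % viability relative to untreated cells.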
(In general: The colour change of resazurin is a common sign of viable cells or microbes.)

Assay [2] deals with RKO (RKOp27) human colon adenocarcinoma cells. Nature of the assay: Alamar Blue cell viability assay, anti-proliferative/cytotoxic activity on proliferating (uninduced) RKOp27 cells. Conditions: 72 hours incubation, absence of the inducer Ponasterone A, read-out: IC50 RKO p27 uninduced (proliferating). The class given is cell-based. The gist of the method: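 RKOp27 subclones seeded at 5000 cells/well, compounds added after 24 h in DMEM/10% FCS, quadruplicates, 72 h at 37 °C, 5% CO2. Alamar Blue fluorescence (ex 544/em 590 nm) normalised to untreated cells (1% DMSO medium) as 100%; IC50 from concentration-effect curves.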

For the molecule `CCOc1ccccc1C(C)CC(=O)Nc1sc2c(c1C#N)CCN(C(=O)Cn1ccnc1)C2` (racemic) [Example 83, (RS)—N-[3-Cyano-6-(2-imidazol-1-yl-ethanoyl)-4,5,6,7-tetrahydro-thieno[2,3-c]pyridin-2-yl]-3-(2-ethoxy-phenyl)-butyramide], the negative logarithm of the IC50 (pIC50) – broadly, the negative decadic logarithm of the IC50, by convention in mol/L – in assay [1] was at most 4.40; in assay [2], at least 6.52.

With `CCCC(=O)N1CCc2c(sc(NC(=O)CC(C)c3ccccc3OC)c2C#N)C1` (racemic) [Example 89, (RS)—N-(6-Butyryl-3-cyano-4,5,6,7-tetrahydro-thieno[2,3-c]pyridin-2-yl)-3-(2-methoxy-phenyl)-butyramide], the negative logarithm of the IC50 (pIC50) in assay [1] was below 4.00; in assay [2], at least 6.52.

`COc1ccccc1CCC(=O)Nc1sc2c(c1C#N)CCN(C(=O)CC(C)n1ccnc1)C2` (racemic) [Example 56, N-[3-Cyano-6-((RS)-3-imidazol-1-yl-butanoyl)-4,5,6,7-tetrahydro-thieno[2,3-c]pyridin-2-yl]-3-(2-methoxy-phenyl)-propionamide]: the pIC50 in assay [1] was at most 4.40; in assay [2] it was 5.70 to 6.52.

In the case of `CCOc1ccccc1CCC(=O)Nc1sc2c(c1C#N)CCN(C(=O)COCCOC)C2` [Example 25, N-{3-Cyano-6-[2-(2-methoxy-ethoxy)-ethanoyl]-4,5,6,7-tetrahydro-thieno[2,3-c]pyridin-2-yl}-3-(2-ethoxy-phenyl)-propionamide], the results for the negative-log IC50 (pIC50) in assay [1] and in assay [2] were below 4.00 and at least 6.52, respectively.

As for `COc1ccccc1C(C)CC(=O)Nc1sc2c(c1C#N)CCN(C(=O)CCn1cnc(C)c1)C2` (racemic) [Example 152, (RS)—N-{3-Cyano-6-[3-(4-methyl-imidazol-1-yl)-propanoyl]-4,5,6,7-tetrahydro-thieno[2,3-c]pyridin-2-yl}-3-(2-methoxy-phenyl)-butyramide], the figures for the negative-log IC50 (pIC50) in assay [1] and in assay [2] were at most 5.00 and 5.70 to 6.52, respectively.

As to `COc1ccccc1CCC(=O)Nc1sc2c(c1C#N)CCN(C(=O)Cn1ccnc1C)C2` [Example 130, N-{3-Cyano-6-[2-(2-methyl-imidazol-1-yl)-ethanoyl]-4,5,6,7-tetrahydro-thieno[2,3-c]pyridin-2-yl}-3-(2-methoxy-phenyl)-propionamide], the negative-log IC50 (pIC50) was at most 4.40 in assay [1] and at least 6.52 in assay [2].

For the molecule `COCC(=O)N1CCc2c(sc(NC(=O)CCc3cccc(OC)c3)c2C#N)C1` [Example 18, N-[3-Cyano-6-(2-methoxy-ethanoyl)-4,5,6,7-tetrahydro-thieno[2,3-c]pyridin-2-yl]-3-(3-methoxy-phenyl)-propionamide], the values for the pIC50 in assay [1] and in assay [2] were below 4.00 and 5.70 to 6.52, respectively.

`CCCC(=O)N1CCc2c(sc(NC(=O)CCc3cc(C)ccc3OC)c2C#N)C1` [Example 35, N-(6-Butyryl-3-cyano-4,5,6,7-tetrahydro-thieno[2,3-c]pyridin-2-yl)-3-(2-methoxy-5-methyl-phenyl)-propionamide]: the values for the negative logarithm of the IC50 (pIC50) in assay [1] and in assay [2] were below 4.00 and at least 6.52, respectively.

For the molecule `COc1cccc(CCC(=O)Nc2sc3c(c2C#N)CCN(C(=O)CCc2cccnc2)C3)c1` [Example 14, N-[3-Cyano-6-(3-pyridin-3-yl-propanoyl)-4,5,6,7-tetrahydro-thieno[2,3-c]pyridin-2-yl]-3-(3-methoxy-phenyl)-propionamide], the results for the pIC50 in assay [1] and in assay [2] were below 4.00 and 5.70 to 6.52, respectively.

Consider `COc1cccc(CCC(=O)Nc2sc3c(c2C#N)CCN(C(=O)CCn2ccnc2)C3)c1` [Example 20, N-[3-Cyano-6-(3-imidazol-1-yl-propanoyl)-4,5,6,7-tetrahydro-thieno[2,3-c]pyridin-2-yl]-3-(3-methoxy-phenyl)-propionamide], for which the pIC50 in assay [1] was at most 4.40; in assay [2] it was 5.70 to 6.52.

`COCC(=O)N1CCc2c(sc(NC(=O)CCc3ccccc3OC)c2C#N)C1` [Example 5, N-[3-Cyano-6-(2-methoxy-ethanoyl)-4,5,6,7-tetrahydro-thieno[2,3-c]pyridin-2-yl]-3-(2-methoxy-phenyl)-propionamide]: the negative logarithm of the IC50 (pIC50) was below 4.00 in assay [1] and at least 6.52 in assay [2].

For the molecule `CCOc1cccc(C(C)CC(=O)Nc2sc3c(c2C#N)CCN(C(=O)Cc2ccccn2)C3)c1` (racemic) [Example 61, (RS)—N-[3-Cyano-6-(2-pyridin-2-yl-ethanoyl)-4,5,6,7-tetrahydro-thieno[2,3-c]pyridin-2-yl]-3-(3-ethoxy-phenyl)-butyramide], the values for the pIC50 in assay [1] and in assay [2] were below 4.00 and 5.70 to 6.52, respectively.

For `COc1ccccc1CCC(=O)Nc1sc2c(c1C#N)CCN(C(=O)CCc1ccccn1)C2` [Example 95, N-[3-Cyano-6-(3-pyridin-2-yl-propanoyl)-4,5,6,7-tetrahydro-thieno[2,3-c]pyridin-2-yl]-3-(2-methoxy-phenyl)-propionamide], the negative logarithm of the IC50 (pIC50) in assay [1] was below 4.00; in assay [2], at least 6.52.

For `COc1ccccc1C(C)CC(=O)Nc1sc2c(c1C#N)CCN(C(=O)CCc1cccnc1)C2` (racemic) [Example 77, (RS)—N-[3-Cyano-6-(3-pyridin-3-yl-propanoyl)-4,5,6,7-tetrahydro-thieno[2,3-c]pyridin-2-yl]-3-(2-methoxy-phenyl)-butyramide], the results for the pIC50 in assay [1] and in assay [2] were below 4.00 and 5.70 to 6.52, respectively.

For the molecule `COCCC(=O)N1CCc2c(sc(NC(=O)CCc3cc(C)ccc3OC)c2C#N)C1` [Example 32, N-[3-Cyano-6-(3-methoxy-propanoyl)-4,5,6,7-tetrahydro-thieno[2,3-c]pyridin-2-yl]-3-(2-methoxy-5-methyl-phenyl)-propionamide], the pIC50 in assay [1] is below 4.00; in assay [2], 5.70 to 6.52.

As for `COCCOCC(=O)N1CCc2c(sc(NC(=O)CCc3cccc(OC)c3)c2C#N)C1` [Example 30, N-{3-Cyano-6-[2-(2-methoxy-ethoxy)-ethanoyl]-4,5,6,7-tetrahydro-thieno[2,3-c]pyridin-2-yl}-3-(3-methoxy-phenyl)-propionamide], the figures for the pIC50 in assay [1] and in assay [2] were below 4.00 and 5.70 to 6.52, respectively.

Consider `CCOc1ccccc1CCC(=O)Nc1sc2c(c1C#N)CCN(C(=O)CCc1nccn1C)C2` [Example 117, N-{3-Cyano-6-[3-(1-methyl-1H-imidazol-2-yl)-propanoyl]-4,5,6,7-tetrahydro-thieno[2,3-c]pyridin-2-yl}-3-(2-ethoxy-phenyl)-propionamide], for which the pIC50 in assay [1] was at most 5.00; in assay [2], at least 6.52.

Regarding `COCCC(=O)N1CCc2c(sc(NC(=O)CCc3cccc(OC)c3)c2C#N)C1` [Example 12, N-[3-Cyano-6-(3-methoxy-propanoyl)-4,5,6,7-tetrahydro-thieno[2,3-]pyridin-2-yl]-3-(3-methoxy-phenyl)-propionamide], the negative-log IC50 (pIC50) in assay [1] is below 4.00; in assay [2], 5.70 to 6.52.

With `COc1cccc(C(C)CC(=O)Nc2sc3c(c2C#N)CCN(C(=O)Cc2ccccn2)C3)c1` (stereo not shown) [Example 58, N-[3-Cyano-6-(2-pyridin-2-yl-ethanoyl)-4,5,6,7-tetrahydro-thieno[2,3-c]pyridin-2-yl]-3-(3-methoxy-phenyl)-butyramide], the negative-log IC50 (pIC50) in assay [1] was below 4.00; in assay [2], 5.70 to 6.52.

For `CCOc1ccccc1C(C)CC(=O)Nc1sc2c(c1C#N)CCN(C(=O)CCc1nccn1C)C2` (racemic) [Example 114, (RS)—N-{3-Cyano-6-[3-(1-methyl-1H-imidazol-2-yl)-propanoyl]-4,5,6,7-tetrahydro-thieno[2,3-c]pyridin-2-yl}-3-(2-ethoxy-phenyl)-butyramide], the negative logarithm of the IC50 (pIC50) is at most 5.00 in assay [1] and 5.70 to 6.52 in assay [2].

Take `COc1ccccc1CCC(=O)Nc1sc2c(c1C#N)CCN(C(=O)Cc1cccnc1)C2` [Example 2, N-[3-Cyano-6-(2-pyridin-3-yl-ethanoyl)-4,5,6,7-tetrahydro-thieno[2,3-c]pyridin-2-yl]-3-(2-methoxy-phenyl)-propionamide]: the negative-log IC50 (pIC50) is at most 4.40 in assay [1] and at least 6.52 in assay [2].

Turning to `COCC(=O)N1CCc2c(sc(NC(=O)CCc3cc(C)ccc3OC)c2C#N)C1` [Example 33, N-[3-Cyano-6-(2-methoxy-ethanoyl)-4,5,6,7-tetrahydro-thieno[2,3-c]pyridin-2-yl]-3-(2-methoxy-5-methyl-phenyl)-propionamide], the figures for the pIC50 in assay [1] and in assay [2] were below 4.00 and 5.70 to 6.52, respectively.

On to `COc1cccc(CCC(=O)Nc2sc3c(c2C#N)CCN(C(=O)CC(C)n2ccnc2)C3)c1` (racemic) [Example 57, N-[3-Cyano-6-((RS)-3-imidazol-1-yl-butanoyl)-4,5,6,7-tetrahydro-thieno[2,3-c]pyridin-2-yl]-3-(3-methoxy-phenyl)-propionamide], for which the pIC50 in assay [1] was at most 4.40; in assay [2], 5.70 to 6.52.

As for `COc1ccccc1CCC(=O)Nc1sc2c(c1C#N)CCN(C(=O)COC(C)=O)C2` [Example 7, Acetic acid 2-{3-cyano-2-[3-(2-methoxy-phenyl)-propanoylamino]-4,7-dihydro-5H-thieno[2,3-c]pyridin-6-yl}-2-oxo-ethyl ester], the pIC50 in assay [1] is below 4.00; in assay [2] it was at least 6.52.

`COc1ccccc1C(C)CC(=O)Nc1sc2c(c1C#N)CCN(C(=O)Cc1ccncc1)C2` (racemic) [Example 70, (RS)—N-[3-Cyano-6-(2-pyridin-4-yl-ethanoyl)-4,5,6,7-tetrahydro-thieno[2,3-c]pyridin-2-yl]-3-(2-methoxy-phenyl)-butyramide]: the negative logarithm of the IC50 (pIC50) in assay [1] is at most 4.40; in assay [2], at least 6.52.

As to `CCOc1ccccc1CCC(=O)Nc1sc2c(c1C#N)CCN(C(=O)CCc1ccncc1)C2` [Example 123], the negative logarithm of the IC50 (pIC50) was at most 5.00 in assay [1] and at least 6.52 in assay [2].

Values taken from patent US7763728B2, “Tetrahydropyridothiophenes” (4SC AG, priority 2005, dated 2010).
